Columns and labels:
[1] = test system: whole blood (pERK); experiment: pERK Whole Blood; type: cell-based
[2] = target: human DGKζ (Homo sapiens (Human), UniProt Q13574); experiment: DGKζ LIPGLO assay (extruded liposome substrate, ADP-Glo luminescence); type: biochemical; conditions: liposome (LIPGLO) assay; read-out: DGK zeta (liposome assay) IC50
[3] = target: human DGKα (Homo sapiens (Human), UniProt P23743); experiment: DGKα ADPGLO assay (detergent/lipid micelle substrate); type: biochemical; conditions: ADPGLO assay; read-out: DGK alpha ADPGLO IC50
Description: DGK Alpha ADPGLO (Truncated) IC50 (uM)
The detergent/lipid micelle was prepared by combining 15 g phosphatidylserine (Avanti 840035P) and 1 g diacylglycerol (8008110) and dissolving into 150 mL chloroform in a 2 L round bottom flask. Chloroform was removed under high vacuum by rotary evaporation. […] The lipid/detergent solution was split into 5 mL aliquots and stored at −80° C.

Chain of human DGKζ (Q13574 other isoform, or with tags, fused parts or gaps): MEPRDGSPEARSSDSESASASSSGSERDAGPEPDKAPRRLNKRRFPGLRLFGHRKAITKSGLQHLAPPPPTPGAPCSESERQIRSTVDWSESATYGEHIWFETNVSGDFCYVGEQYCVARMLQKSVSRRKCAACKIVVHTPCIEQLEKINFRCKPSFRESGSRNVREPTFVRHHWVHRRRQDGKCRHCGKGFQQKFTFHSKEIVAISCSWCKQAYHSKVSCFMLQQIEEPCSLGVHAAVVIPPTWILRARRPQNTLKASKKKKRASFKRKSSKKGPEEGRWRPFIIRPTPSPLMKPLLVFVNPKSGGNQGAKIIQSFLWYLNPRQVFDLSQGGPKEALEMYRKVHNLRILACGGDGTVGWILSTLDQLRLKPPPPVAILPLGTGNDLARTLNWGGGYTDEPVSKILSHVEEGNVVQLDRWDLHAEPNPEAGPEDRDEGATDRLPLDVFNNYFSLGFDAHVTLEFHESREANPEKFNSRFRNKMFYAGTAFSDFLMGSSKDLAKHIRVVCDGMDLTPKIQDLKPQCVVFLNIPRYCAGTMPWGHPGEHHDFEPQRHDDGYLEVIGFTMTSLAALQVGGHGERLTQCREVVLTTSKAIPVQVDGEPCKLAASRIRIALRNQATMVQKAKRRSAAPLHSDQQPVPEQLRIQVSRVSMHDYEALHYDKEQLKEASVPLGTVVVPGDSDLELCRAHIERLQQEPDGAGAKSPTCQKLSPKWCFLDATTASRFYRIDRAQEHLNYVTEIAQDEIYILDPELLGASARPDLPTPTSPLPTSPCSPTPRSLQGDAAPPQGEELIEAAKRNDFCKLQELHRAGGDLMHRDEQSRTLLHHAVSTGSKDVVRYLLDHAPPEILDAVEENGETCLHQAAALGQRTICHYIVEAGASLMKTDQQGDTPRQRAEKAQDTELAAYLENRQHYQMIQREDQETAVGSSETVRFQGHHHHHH
Chain of human DGKα (P23743 whole entry, looked up, the tested form may be a part): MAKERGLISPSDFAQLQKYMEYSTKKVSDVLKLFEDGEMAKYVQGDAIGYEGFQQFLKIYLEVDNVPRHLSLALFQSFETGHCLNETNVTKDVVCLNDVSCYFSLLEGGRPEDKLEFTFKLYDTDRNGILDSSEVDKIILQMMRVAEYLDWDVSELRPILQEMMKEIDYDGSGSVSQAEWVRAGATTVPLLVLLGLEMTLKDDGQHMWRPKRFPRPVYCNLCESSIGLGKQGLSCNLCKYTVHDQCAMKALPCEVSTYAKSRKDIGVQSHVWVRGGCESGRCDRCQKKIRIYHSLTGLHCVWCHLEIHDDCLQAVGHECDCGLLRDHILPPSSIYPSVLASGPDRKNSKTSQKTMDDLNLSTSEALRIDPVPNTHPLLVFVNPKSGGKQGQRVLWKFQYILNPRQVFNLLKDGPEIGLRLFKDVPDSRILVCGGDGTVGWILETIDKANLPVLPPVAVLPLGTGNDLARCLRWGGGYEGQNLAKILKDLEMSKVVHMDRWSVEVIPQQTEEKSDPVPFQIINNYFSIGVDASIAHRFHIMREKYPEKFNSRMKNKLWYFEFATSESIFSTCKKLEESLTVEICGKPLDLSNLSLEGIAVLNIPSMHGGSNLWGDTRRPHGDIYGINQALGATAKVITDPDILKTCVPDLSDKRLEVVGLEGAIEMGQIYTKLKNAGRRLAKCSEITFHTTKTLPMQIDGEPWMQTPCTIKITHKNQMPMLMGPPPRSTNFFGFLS

EC50 [1] [nM]	IC50 [2] [nM]	IC50 [3] [nM]	Structure (SMILES)
20000	1310	910	CCC(c1ccc(OCC2CCOCC2)cc1)N1C[C@H](C)N(c2nc(=O)n(C)c3ccc(C#N)nc23)C[C@H]1CC (stereo partly drawn) [Example 338, 4-((2S,5R)-5-ethyl-2-methyl-4-(1-(4-((tetrahydro-2H-pyran-4-yl)methoxy)phenyl)propyl)piperazin-1-yl)-1-methyl-2-oxo-1,2-dihydropyrido[3,2-d]pyrimidine-6-carbonitrile]
930	440	18000	CC[C@@H]1CN(c2nc(=O)n(C)c3ccc(C#N)nc23)[C@@H](C)CN1C(C)c1ccc(C(F)(F)F)c(C#N)c1 (single isomer, unassigned) [Example 356]
70	69	800	CC[C@@H]1CN(c2nc(=O)n(C)c3ccc(C#N)nc23)[C@@H](C)CN1C(C)c1ccc(C2(C#N)CC2)cc1 (stereo partly drawn) [Example 325, 4-((2S,5R)-4-(1-(4-(1-cyanocyclopropyl)phenyl)ethyl)-5-ethyl-2-methylpiperazin-1-yl)-1-methyl-2-oxo-1,2-dihydropyrido[3,2-d]pyrimidine-6-carbonitrile]
20000	8710	92	[2H]C([2H])([2H])n1c(=O)nc(N2C[C@@H](CC)N(C(C)c3ccc(C(F)(F)F)cc3)C[C@@H]2C)c2nc(Cl)ccc21 (single isomer, unassigned) [Example 418]
1560	740	5290	CC[C@@H]1CN(c2nc(=O)n(C)c3ccc(C#N)nc23)[C@@H](C)CN1C(C)c1ccc(C2CCOCC2)cc1 (stereo partly drawn) [Example 329, 4-((2 S,5R)-5-ethyl-2-methyl-4-(1-(4-(tetrahydro-2H-pyran-4-yl)phenyl)ethyl)piperazin-1-yl)-1-methyl-2-oxo-1,2-dihydropyrido[3,2-d]pyrimidine-6-carbonitrile]
20000	520	170	[2H]C([2H])([2H])n1c(=O)nc(N2C[C@@H](CC)N(C(C)c3ccc(C(F)(F)F)cc3)C[C@@H]2C)c2nc(Cl)ccc21 (single isomer, unassigned) [Example 417]
7130	81100	1960	CC(c1ccc(C(F)(F)F)cc1)N1C[C@H](CO)N(c2nc(=O)n(C)c3ccc(C#N)nc23)C[C@H]1C (single isomer, unassigned) [Example 406]
73	6330	740	CCC(c1ccc(OCC2CN(C)C2)cc1)N1C[C@H](C)N(c2nc(=O)n(C)c3ccc(C#N)nc23)C[C@H]1CC (stereo partly drawn) [Example 343, 4-((2 S, 5R)-5-ethyl-2-methyl-4-(1-(4-((1-methylazetidin-3-yl)methoxy)phenyl)propyl)piperazin-1-yl)-1-methyl-2-oxo-1,2-dihydropyrido[3,2-d]pyrimidine-6-carbonitrile]
3070	1570	620	CCC(c1ccc(C(C)(C)C#N)cc1)N1C[C@H](C)N(c2nc(=O)n(C)c3ccc(C#N)nc23)C[C@H]1CC (stereo partly drawn) [Example 318, 4-((2S,5R)-4-(1-(4-(2-cyanopropan-2-yl)phenyl)propyl)-5-ethyl-2-methylpiperazin-1-yl)-1-methyl-2-oxo-1,2-dihydropyrido[3,2-d]pyrimidine-6-carbonitrile]
640	31000	400	CC(c1ccc(C(F)(F)F)cc1)N1C[C@H](CO)N(c2nc(=O)n(C)c3ccc(C#N)nc23)C[C@H]1C (single isomer, unassigned) [Example 407]
270	190	26	CC[C@@H]1CN(c2nc(=O)n(C)c3ccc(C#N)nc23)[C@@H](C)CN1C(c1ccc(F)cc1)c1cccc(C(F)F)n1 (stereo partly drawn) [Example 315, 4-((2 S,5R)-4-((6-(difluoromethyl)pyridin-2-yl)(4-fluorophenyl)methyl)-5-ethyl-2-methylpiperazin-1-yl)-1-methyl-2-oxo-1,2-dihydropyrido[3,2-d]pyrimidine-6-carbonitrile]
20000	5570	13600	CCC(N1C[C@H](C)N(c2nc(=O)n(C)c3ccc(C#N)nc23)C[C@H]1C)C12CC(C(F)(F)F)(C1)C2 (stereo partly drawn) [Example 447, 4-((2S,5R)-2,5-dimethyl-4-(1-(3-(trifluoromethyl)bicyclo[1.1.1]pentan-1-yl)propyl)piperazin-1-yl)-1-methyl-2-oxo-1,2-dihydropyrido[3,2-d]pyrimidine-6-carbonitrile]
3780	1560	2080	CC[C@@H]1CN(c2nc(=O)n(C)c3ccc(C#N)nc23)[C@@H](C)CN1C(C)c1ccc(C(F)(F)F)c(C#N)c1 (single isomer, unassigned) [Example 357]
1740	95	49	CCC(c1ccc(OCC2(C)CC2)cc1)N1C[C@H](C)N(c2nc(=O)n(C)c3ccc(C#N)nc23)C[C@H]1CC (stereo partly drawn) [Example 345, 4-((2S,5R)-5-ethyl-2-methyl-4-(1-(4-((1-methylcyclopropyl)methoxy)phenyl)propyl)piperazin-1-yl)-1-methyl-2-oxo-1,2-dihydropyrido[3,2-d]pyrimidine-6-carbonitrile]
4410	21	16	CC[C@@H]1CN(c2nc(=O)n(C)c3ccc(C#N)nc23)[C@@H](C)CN1C(c1nc(C2CC2)no1)C(C)C (stereo partly drawn) [Example 365, 4-((2S,5R)-4-(1-(3-cyclopropyl-1,2,4-oxadiazol-5-yl)-2-methylpropyl)-5-ethyl-2-methylpiperazin-1-yl)-1-methyl-2-oxo-1,2-dihydropyrido[3,2-d]pyrimidine-6-carbonitrile]
9590	2210	950	CC[C@H]1CN(C(C)c2ccc(C(F)(F)F)cc2)[C@H](CC)CN1c1nc(=O)n(C)c2ccc(OC(F)F)nc12 (stereo partly drawn) [Example 445, 4-((2S,5R)-2,5-Diethyl-4-(1-(4-(trifluoromethyl)phenyl)ethyl)piperazin-1-yl)-6-(difluoromethoxy)-1-methylpyrido[3,2-d]pyrimidin-2(1H)-one]
11000	2830	640	CC[C@@H]1CN(c2nc(=O)n(C)c3ccc(C#N)nc23)[C@@H](C)CN1C(C)c1ccc(C2CCOCC2)cc1 (stereo partly drawn) [Example 330, 4-((2 S,5R)-5-ethyl-2-methyl-4-(1-(4-(tetrahydro-2H-pyran-4-yl)phenyl)ethyl)piperazin-1-yl)-1-methyl-2-oxo-1,2-dihydropyrido[3,2-d]pyrimidine-6-carbonitrile]
160	11300	1490	CC[C@@H]1CN(c2nc(=O)[nH]c3ccc(C#N)nc23)[C@@H](C)CN1C(C)c1ccc(C(F)(F)F)cc1 (single isomer, unassigned) [Example 414]
2070	57	320	CCC(c1c(F)cc(OCC2CC2)cc1F)N1C[C@H](C)N(c2nc(=O)n(C)c3ccc(C#N)nc23)C[C@H]1CC (stereo partly drawn) [Example 327, 4-((2S,5R)-4-(1-(4-(cyclopropylmethoxy)-2,6-difluorophenyl)propyl)-5-ethyl-2-methylpiperazin-1-yl)-1-methyl-2-oxo-1,2-dihydropyrido[3,2-d]pyrimidine-6-carbonitrile]
